# According to patent US6689383B1, “Chromium-histidine complexes as nutrient supplements” (The United States of America as represented by the …, priority 1999, dated 2004):
# Where two headings read alike, the source gives them in different places. Marks after values point to notes of the source that are not given here.
# How the values were obtained:
# [1] = Chromium absorption in humans based on urinary chromium excretion
# Protocol: Experiments were carried out to investigate the efficacy of chromium-histidine complexes in the absorption process. Chromium was administered in the formulations listed in Table 1 at dosages of 200 μg chromium to three adult males and three females, and absorption during the first 24 hours was measured based on urinary chromium excretion.
# [2] = chromium picolinate: at intakes up to 1000 μg per day; cited from earlier work
# Water solubility = format: physicochemical
# Stability = format: physicochemical; settings: aqueous solutions
# hemoglobin A1C = settings: type 2 diabetes, cited from earlier work
# steroid-induced diabetes = settings: 600 μg of chromium per day for 2 weeks followed by daily maintenance dose of 200 μg; cited from earlier work
# insulin sensitivity = settings: 1000 μg daily of supplemental chromium, obese subjects with family history of diabetes; cited from earlier work
compound,measurement,setting,value
[Cl][Cr]([Cl])[Cl] [Chromium chloride],μGRAMS ABSORBED (chromium absorbed),"[1]; first 24 hours following intake of 200 μg of chromium, based on urinary chromium excretion, 3 adult males and 3 females",0.44 ± 0.07^b μGRAMS
same,Absorption of chromium,[2],approximately 0.4%
N[C@@H](Cc1c[nH]cn1)C(=O)O.[Cr] [Chromium histidine],Water solubility,Water solubility,water-soluble
same,Absorption level relative to chromium picolinate,"[1]; 200 μg chromium, first 24 hours, urinary chromium excretion",almost twice
same,Stability,Stability,stable in aqueous solutions
Chromium picolinate,Hemoglobin A1C,hemoglobin A1C; 200 μg chromium per day for 4 months,7.5±0.2%
same,Hemoglobin A1C,hemoglobin A1C; 1000 μg of chromium per day for 4 months,6.6±0.1%
same,People whose steroid-induced diabetes improved to acceptable levels,steroid-induced diabetes,47 of 50
same,Insulin sensitivity,insulin sensitivity,improved
